Measured values: the supplement of paper PMC11208160

Test: recombinant UMI read abundance after kanamycin selection (control-corrected) (log10(CPM+1)); higher = more efficient recombination; extreme values may be limits of the assay; sequences stand for … in AGTGCAGAGAAAATCGGCCAGTTTTCTCTGCCTGCAGTCCGCATGCCGTGGGACCCCTTGGGTTCTAACCTGTTGCCTAGATTTATGCAGCGGACTGCCTTTCTCCCAAAGTGATAAACCGG…AGGTTGGTTTCACT; site = the 11-nt donor
Method in brief: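 In a pooled Escherichia coli screen for the IS621 bridge recombinase, donor and donor-binding-loop pairs were each placed with a 12-nt UMI on a plasmid bearing a promoterless kanamycin gene. This library was co-electroporated with a target plasmid encoding a fixed target and T7-inducible recombinase, and cells were plated either on IPTG (0.07 mM) plus kanamycin or without selection, in two replicates each. Recombinant UMIs were PCR-amplified across the donor–target junction and sequenced, and counts were converted to CPM, averaged over replicates, scaled by control-derived factors and reported as log10(CPM+1).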
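Also: IS621 bridge recombinase in Escherichia coli cells against a fixed T5 target plasmid.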

Sequence	recombinant UMI read abundance (log10)
ATTAGGCCATGGACCGGTTTTCCCGGTAATCCGTATTTGTG (site ATTAGGCCTCA)	0.00967
ATTCAAGCATGGACCGGTTTTCCCGGTAATCCGTATTTGAG (site ATACAAGCTCT)	1.07
ATTCAAGCATGGACCGGTTTTCCCGGTAATCCGTATTTGAG (site ATCCAAGCTCT)	0.605
ATTCAAGCATGGACCGGTTTTCCCGGTAATCCGTATTTGAG (site ATGCAAGCTCT)	0.501
ATTCAAGCATGGACCGGTTTTCCCGGTAATCCGTATTTGAG (site ATTCAAGCTCT)	1.16
ATTCAGACATGGACCGGTTTTCCCGGTAATCCGTATTTGGT (site ATTAAGACTAC)	0.402
ATTCAGACATGGACCGGTTTTCCCGGTAATCCGTATTTGGT (site ATTCAGACTAC)	0.566
ATTCAGACATGGACCGGTTTTCCCGGTAATCCGTATTTGGT (site ATTGAGACTAC)	0.305
ATTCAGACATGGACCGGTTTTCCCGGTAATCCGTATTTGGT (site ATTTAGACTAC)	0.0116
ATTCATACATGGACCGGTTTTCCCGGTAATCCGTATTTGTT (site ATTCATACTAA)	0.291
ATTGAGACATGGACCGGTTTTCCCGGTAATCCGTATTTGGG (site ATTGAGACTAC)	0.0103
ATTGAGACATGGACCGGTTTTCCCGGTAATCCGTATTTGGG (site ATTGAGACTCC)	0.0142
ATTGAGACATGGACCGGTTTTCCCGGTAATCCGTATTTGGG (site ATTGAGACTGC)	0
ATTGAGACATGGACCGGTTTTCCCGGTAATCCGTATTTGGG (site ATTGAGACTTC)	0.0235
ATTGAGTCATGGACCGGTTTTCCCGGTAATCCGTATTTGGT (site ATTGAGACTAC)	0.0845
ATTGAGTCATGGACCGGTTTTCCCGGTAATCCGTATTTGGT (site ATTGAGCCTAC)	0.00525
ATTGAGTCATGGACCGGTTTTCCCGGTAATCCGTATTTGGT (site ATTGAGGCTAC)	0
ATTGAGTCATGGACCGGTTTTCCCGGTAATCCGTATTTGGT (site ATTGAGTCTAC)	2.29
ATTGTAACATGGACCGGTTTTCCCGGTAATCCGTATTTGCT (site AATGTAACTAG)	1.49

Sequence	recombinant UMI read abundance (log10)
ATTGTAACATGGACCGGTTTTCCCGGTAATCCGTATTTGCT (site ACTGTAACTAG)	1.9
ATTGTAACATGGACCGGTTTTCCCGGTAATCCGTATTTGCT (site AGTGTAACTAG)	1.5
ATTGTAACATGGACCGGTTTTCCCGGTAATCCGTATTTGCT (site ATTGTAACTAG)	2.15
ATTGTTGCATGGACCGGTTTTCCCGGTAATCCGTATTTGAC (site ATTGTTGCTGT)	2.18
ATTGTTGCATGGACCGGTTTTCCCGGTAATCCGTATTTGCT (site ATTGTTGCTAG)	2.37
ATTTAGACATGGACCGGTTTTCCCGGTAATCCGTATTTGCG (site ATTTAGACTCG)	1.16
ATTTAGTCATGGACCGGTTTTCCCGGTAATCCGTATTTGTT (site CACATCCCTTC)	0.0539
ATTTCTACATGGACCGGTTTTCCCGGTAATCCGTATTTGTT (site ATTTCTACTAA)	0.0251
ATTTGATCATGGACCGGTTTTCCCGGTAATCCGTATTTGTG (site ATTTGATCTCA)	1.71
CAAACAGCATGGACCGGTTTTCCCGGTAATCCGTATTTGCT (site CAAACAGCTAG)	2.26
CAAACAGCATGGACCGGTTTTCCCGGTAATCCGTATTTGCT (site CAACCAGCTAG)	0.00434
CAAACAGCATGGACCGGTTTTCCCGGTAATCCGTATTTGCT (site CAAGCAGCTAG)	0.00437
CAAACAGCATGGACCGGTTTTCCCGGTAATCCGTATTTGCT (site CAATCAGCTAG)	0
CAAAGAACATGGACCGGTTTTCCCGGTAATCCGTATTTGCG (site CAAAGAACTCG)	2.53
CAAAGGGCATGGACCGGTTTTCCCGGTAATCCGTATTTGAC (site CAAAGGGCTGT)	2.62
CAAATTTCATGGACCGGTTTTCCCGGTAATCCGTATTTGTG (site CAAATTTCTCA)	0.763
CAACAGACATGGACCGGTTTTCCCGGTAATCCGTATTTGAA (site CAACAGACTTT)	1.88
CAACCAGCATGGACCGGTTTTCCCGGTAATCCGTATTTGCT (site CAAACAGCTAG)	0
CAACCAGCATGGACCGGTTTTCCCGGTAATCCGTATTTGCT (site CAACCAGCTAG)	0

Sequence	recombinant UMI read abundance (log10)
CAACCAGCATGGACCGGTTTTCCCGGTAATCCGTATTTGCT (site CAAGCAGCTAG)	0
CAACCAGCATGGACCGGTTTTCCCGGTAATCCGTATTTGCT (site CAATCAGCTAG)	0
CAACCCACATGGACCGGTTTTCCCGGTAATCCGTATTTGAT (site CAACCCACTAT)	0.946
CAACCTGCATGGACCGGTTTTCCCGGTAATCCGTATTTGGC (site CAACCTGCTGC)	0
CAACTAACATGGACCGGTTTTCCCGGTAATCCGTATTTGGA (site CAACTAACTTC)	1.93
CAACTAACATGGACCGGTTTTCCCGGTAATCCGTATTTGGA (site CCACTAACTTC)	0.226
CAACTAACATGGACCGGTTTTCCCGGTAATCCGTATTTGGA (site CGACTAACTTC)	0.548
CAACTAACATGGACCGGTTTTCCCGGTAATCCGTATTTGGA (site CTACTAACTTC)	0.341
CAACTAGCATGGACCGGTTTTCCCGGTAATCCGTATTTGCA (site CAACTAGCTTG)	1.13
CAACTATCATGGACCGGTTTTCCCGGTAATCCGTATTTGAT (site CAACTATCTAT)	0.885
CAAGAATCATGGACCGGTTTTCCCGGTAATCCGTATTTGAC (site CAAGAATCTGT)	2.88
CAAGAATCATGGACCGGTTTTCCCGGTAATCCGTATTTGAC (site CTAGTATCTGT)	0.416
CAAGACACATGGACCGGTTTTCCCGGTAATCCGTATTTGGG (site CAAGACACTCC)	1.28
CAAGACACATGGACCGGTTTTCCCGGTAATCCGTATTTGGG (site CAAGCCACTCC)	0.00576
CAAGACACATGGACCGGTTTTCCCGGTAATCCGTATTTGGG (site CAAGGCACTCC)	0.0364
CAAGACACATGGACCGGTTTTCCCGGTAATCCGTATTTGGG (site CAAGTCACTCC)	0.274
CAAGATACATGGACCGGTTTTCCCGGTAATCCGTATTTGGT (site CAAGATACTAC)	1.97
CAAGCACCATGGACCGGTTTTCCCGGTAATCCGTATTTGTG (site CAAGCACCTCA)	0.018
CAAGCACCATGGACCGGTTTTCCCGGTAATCCGTATTTGTG (site CAAGCCCCTCA)	0.00553
